# Tested on: allergic asthma mouse model induced by a combination of ovalbumin and adjuvant
# Assay: Lung tissue histopathologic examination and lesion score, ovalbumin/aluminium hydroxide allergic asthma mouse model
# Format: in vivo
# Details: positive medicines group, dexamethasone 0.9 μg/kg·d i.p. every other day x15 from week 15
# Procedure: Preparation of sensitized liquid: prepare in a proportion of dissolving 10 ug ovalbumin and 2 mg aluminium hydroxide in 0.5 ml physiological saline, and use it right after being prepared.
# On day 1, day 7 and day 14, the mice of all groups (the model group, the preventive administration groups, the treatment administration groups, and the positive medicines group) apart from the blank control group are injected intraperitoneally with 0.5 ml freshly prepared sensitized liquid. The blank control group is injected intraperitoneally with an equal volume of physiological saline.
# Since day 21 (i.e., starting from week 4), the mice of all groups apart from the blank control group are placed in a 16 L closed container every fourth days, make the mice inhale 1 wt % ovalbumin physiological saline by ultrasonic nebulization, with an inhalation duration of 25 min/d and a nebulization flow rate of 3 ml/min, for twice a week to induce asthma, and the process continues until week 19. […]
# Lung tissue lesions (including bronchia and perivascular interstitial edema, alveolar wall congestion or emphysema) are marked respectively as 1, 2, 3 and 4 in ascending order of severity, 0 stands for no obvious lesions, and 0.5 for extreme mild lesions. All scores are accumulated, and a mean score (±SD) of each mouse in each group is calculated, and a higher score indicates a more severe level of lesions. […]
smiles,measurement,value
"C[C@@H]1C[C@H]2[C@@H]3CCC4=CC(=O)C=C[C@]4(C)[C@@]3(F)[C@@H](O)C[C@]2(C)[C@@]1(O)C(=O)CO [positive drug, dexamethasone]","inflammatory cells infiltration (histopathology, FIG. 6)",infiltration with a few inflammatory cells
same,"pulmonary interstitial edema (histopathology, FIG. 6)",mild pulmonary interstitial edema
